# The supplement of paper PMC10331698
# ± gives the standard deviation of the averaged measurements.
# Assays:
# Experiment in all cases: level (log10 ratio to DMSO vehicle control); higher = higher biomarker level / cell amount than vehicle control
# [1] = compound: CCOC(=O)CC(=O)C(F)(F)C(F)(F)F [Ethyl pentafluoropropionyl acetate] (in DMSO)
# Protocol: (§1)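 BioMAP Diversity Plus panel of 12 human primary cell co-culture systems (3C, 4H, LPS, SAg, BT, BF4T, BE3C, CASM3C, HDF3CGF, KF3CT, MyoF, Mphg). Compounds were added 1 h before stimulation and left for 24 h (MyoF 48 h; BT 72 h for soluble read-outs or 6 d for IgG). Biomarkers were read by ELISA, cytotoxicity by SRB, PBMC viability and proliferation by Alamar Blue. Each well value was divided by the mean of 8 DMSO control wells on the same plate and log10 transformed; duplicate blinded samples were tested at 4 concentrations.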
# [2] = compound: CN(C(=O)C(F)(F)C(F)(F)C(F)(F)F)[Si](C)(C)C [N-Methyl-N-trimethylsilylheptafluorobutyramide] (in DMSO)
# Protocol: as §1
# Perfluorononanoic acid = compound: O=C(O)C(F)(F)C(F)(F)C(F)(F)C(F)(F)C(F)(F)C(F)(F)C(F)(F)C(F)(F)F [Perfluorononanoic acid] (in DMSO)
# Protocol: as §1
# [3] = compound: O=C(O)C(F)(OC(F)(F)C(F)(F)C(F)(F)F)C(F)(F)F [Ammonium perfluoro-2-methyl-3-oxahexanoate] (in Water)
# Protocol: as §1
# [4] = compound: O=C(O)CCC(F)(C(F)(F)F)C(F)(F)F [4,4-bis(Trifluoromethyl)-4-fluoropropanoic acid] (in DMSO)
# Protocol: as §1
# [5] = compound: OCC(F)(F)OC(F)(F)C(F)(F)OC(F)(F)C(F)(F)OC(F)(F)CO [1H,1H,11H,11H-Perfluorotetraethylene glycol] (in DMSO)
# Protocol: as §1
Test System,level (log10) ([1]; 6700 nM),level (log10) ([1]; 20000 nM),level (log10) ([1]; 60000 nM),level (log10) ([2]; 6700 nM),level (log10) ([2]; 20000 nM),level (log10) ([2]; 60000 nM),level (log10) (Perfluorononanoic acid; 6700 nM),level (log10) (Perfluorononanoic acid; 20000 nM),level (log10) ([3]; 6700 nM),level (log10) ([3]; 20000 nM),level (log10) ([3]; 60000 nM),level (log10) ([4]; 6700 nM),level (log10) ([4]; 20000 nM),level (log10) ([4]; 60000 nM),level (log10) ([5]; 6700 nM),level (log10) ([5]; 20000 nM),level (log10) ([5]; 60000 nM)
BF4T:SRB,-0.004,-0.0045 ± 0.0035,-0.002 ± 0.0057,-0.0055 ± 0.00071,-0.003 ± 0.0042,-0.0005 ± 0.00071,-0.002 ± 0.0014,-0.028 ± 0.0014,-0.003 ± 0.013,0 ± 0.0014,0.0135 ± 0.022,0.0065 ± 0.015,0.0015 ± 0.021,0.02 ± 0.014,-0.0035 ± 0.0021,-0.0065 ± 0.0021,-0.0345 ± 0.033
BF4T:tPA,-0.0045 ± 0.0092,-0.0035 ± 0.0092,-0.0145 ± 0.011,-0.0155 ± 0.015,0.0015 ± 0.032,0.012 ± 0.0057,-0.025 ± 0.027,-0.0995 ± 0.026,0.0405 ± 0.0078,0.0575 ± 0.033,0.0185 ± 0.019,-0.0185 ± 0.035,-0.019 ± 0.013,-0.0035 ± 0.023,-0.036 ± 0.0028,-0.0685 ± 0.043,-0.201 ± 0.035
BF4T:uPA,-0.0145 ± 0.023,-0.0045 ± 0.013,-0.0175 ± 0.025,-0.013 ± 0.031,-0.012 ± 0.013,-0.008 ± 0.0028,-0.01 ± 0.054,0.0335 ± 0.032,-0.0025 ± 0.011,-0.0005 ± 0.0078,0.0035 ± 0.022,-0.0015 ± 0.011,-0.0065 ± 0.016,-0.001 ± 0.0042,-0.0125 ± 0.018,-0.0155 ± 0.013,-0.0215 ± 0.0064
BT:B cell Proliferation,0.012 ± 0.017,-0.006 ± 0.011,0.0035 ± 0.022,0.01 ± 0.014,-0.01 ± 0.02,-0.007 ± 0.0014,0.0085 ± 0.0092,0.0365 ± 0.022,-0.239 ± 0.0085,-0.256 ± 0.011,-0.248 ± 0.0035,0.0195 ± 0.0035,-0.0115 ± 0.035,0.0125 ± 0.0035,0.0215 ± 0.0021,-0.0175 ± 0.021,-0.051 ± 0.011
BT:PBMC Cytotoxicity,-0.0045 ± 0.026,0.011 ± 0.0099,-0.0095 ± 0.029,-0.007 ± 0.0014,0.0035 ± 0.022,0.0055 ± 0.044,-0.0065 ± 0.036,0.0515 ± 0.015,-0.083 ± 0.016,-0.095 ± 0.0099,-0.0905 ± 0.023,0.0145 ± 0.019,-0.0095 ± 0.023,-0.002 ± 0.057,0.019 ± 0.0042,-0.018 ± 0.03,-0.0425 ± 0.028
BT:Secreted IgG,0.024 ± 0.014,0.025 ± 0.0071,0.013 ± 0.0014,0.01 ± 0.011,0.016 ± 0.03,0.013 ± 0.048,0.0275 ± 0.021,0.0335 ± 0.026,-0.12 ± 0.07,-0.113 ± 0.059,-0.156,0.019 ± 0.017,-0.053 ± 0.062,0.0025 ± 0.005,-0.093 ± 0.0099,-0.135 ± 0.0071,-0.374 ± 0.055
BT:sIL-2,-0.058 ± 0.099,-0.0055 ± 0.04,-0.007 ± 0.069,-0.0665 ± 0.013,-0.0325 ± 0.056,0.045 ± 0.042,0.0075 ± 0.039,0.0105 ± 0.011,-0.093 ± 0.0099,-0.0525 ± 0.015,-0.124 ± 0.028,-0.0855 ± 0.13,0.02 ± 0.12,0.005 ± 0.2,0.0295 ± 0.12,0.0865 ± 0.1,0.005 ± 0.13
BT:sIL-6,0.019 ± 0.099,0.046 ± 0.11,-0.053 ± 0.1,-0.054 ± 0.021,-0.0635 ± 0.0035,0.002 ± 0.02,0.0215 ± 0.016,0.0145 ± 0.0092,-0.0915 ± 0.0035,-0.0905 ± 0.021,-0.151 ± 0.014,0 ± 0.12,-0.0215 ± 0.069,-0.0665 ± 0.046,-0.025 ± 0.014,-0.101 ± 0.048,-0.302 ± 0.017
BT:sIL-17A,-0.088 ± 0.0014,-0.0195 ± 0.032,-0.0685 ± 0.081,-0.0195 ± 0.073,-0.192 ± 0.11,0.071 ± 0.0042,-0.05 ± 0.0085,0.0015 ± 0.022,0.001 ± 0.02,0.036 ± 0.037,-0.174 ± 0.096,-0.037 ± 0.064,0.087 ± 0.054,-0.019 ± 0.19,-0.075 ± 0.069,-0.105 ± 0.032,-0.337 ± 0.18
BT:sIL-17F,0.0355 ± 0.0092,0.0155 ± 0.0035,-0.012 ± 0.093,-0.017 ± 0.027,-0.008 ± 0.13,0.0005 ± 0.07,-0.0305 ± 0.0064,0.002 ± 0.15,0.111 ± 0.016,0.116 ± 0.012,0.0455 ± 0.012,0.064 ± 0.13,0.0385 ± 0.087,-0.005 ± 0.0085,-0.0185 ± 0.015,-0.176,-0.396 ± 0.044
BT:sTNF-alpha,-0.124 ± 0.17,0.017 ± 0.072,-0.0495 ± 0.07,-0.014 ± 0.062,-0.0875 ± 0.054,0.079 ± 0.13,-0.002 ± 0.038,0.0115 ± 0.073,-0.035 ± 0.037,0.013 ± 0.034,0.0045 ± 0.093,-0.0135 ± 0.22,-0.051 ± 0.12,-0.031 ± 0.16,0.0045 ± 0.066,-0.033 ± 0.09,-0.234 ± 0.044
LPS:CCL2/MCP-1,-0.025 ± 0.0085,-0.0345 ± 0.018,-0.0125 ± 0.018,-0.0085 ± 0.0021,-0.012 ± 0.013,-0.0005 ± 0.023,-0.0035 ± 0.033,0.0165 ± 0.016,0.0325 ± 0.033,-0.017 ± 0.023,-0.001 ± 0.0014,0.024 ± 0.037,0 ± 0.014,0.0155 ± 0.07,-0.0125 ± 0.0035,-0.033 ± 0.028,-0.0405 ± 0.025
LPS:CD40,0.015 ± 0.0014,-0.0245 ± 0.015,-0.0335 ± 0.0064,-0.023 ± 0.027,-0.0065 ± 0.011,-0.0325 ± 0.025,-0.0305 ± 0.019,-0.039 ± 0.011,-0.014 ± 0.018,-0.0145 ± 0.016,-0.045 ± 0.03,0.005 ± 0.027,-0.0115 ± 0.021,-0.0385 ± 0.0035,-0.0565 ± 0.026,-0.058 ± 0.054,-0.126 ± 0.035
LPS:CD62E/E-Selectin,0.015 ± 0.0085,0.0055 ± 0.018,0.0095 ± 0.039,0.0095 ± 0.026,0.002 ± 0.014,0.0105 ± 0.054,-0.009 ± 0.013,-0.01 ± 0.0085,-0.0115 ± 0.0078,-0.005 ± 0.016,-0.004 ± 0.0085,0.0115 ± 0.023,0.0055 ± 0.013,-0.007 ± 0.016,0.004 ± 0.025,-0.012 ± 0.016,-0.0165 ± 0.016
LPS:CD69,-0.02 ± 0.013,-0.048 ± 0.02,-0.021 ± 0.072,-0.004 ± 0.011,-0.013 ± 0.041,0.004 ± 0.011,-0.0275 ± 0.022,-0.038 ± 0.013,0.03 ± 0.0028,0 ± 0.028,-0.0315 ± 0.04,-0.0145 ± 0.077,-0.0265 ± 0.015,-0.045 ± 0.025,-0.0115 ± 0.025,-0.072 ± 0.035,-0.095 ± 0.011
LPS:CD106/VCAM-1,0.004 ± 0.011,-0.0105 ± 0.037,-0.0135 ± 0.026,-0.0165 ± 0.0021,-0.0035 ± 0.005,-0.004 ± 0.041,-0.017 ± 0.014,-0.002 ± 0.0057,-0.0285 ± 0.016,-0.016 ± 0.0071,-0.0195 ± 0.011,-0.016 ± 0.034,-0.0255 ± 0.0092,-0.023 ± 0.021,0.001 ± 0.045,-0.002 ± 0.034,-0.041 ± 0.052
LPS:CD141/Thrombomodulin,0.0635 ± 0.016,0.0625 ± 0.012,0.077 ± 0.055,-0.0125 ± 0.0064,-0.014 ± 0.0085,-0.018 ± 0.014,-0.018 ± 0.048,-0.018 ± 0.017,-0.013 ± 0.031,-0.0025 ± 0.0092,-0.036 ± 0.028,-0.0025 ± 0.0035,-0.009 ± 0.028,-0.002 ± 0.0099,0.0725 ± 0.076,0.09 ± 0.067,0.157 ± 0.056
